The text below walks through data of patent US6743795B1, “3-nitropyridine derivaives and the pharmaceutical compositions containing said derivatives” (Dong Wha Pharm. Ind. Co. Ltd., priority 1999, dated 2004).

One experiment addresses T1, HBV polymerase (Hepatitis B virus genotype A2 subtype adw2, UniProt P03159).
T1 construct: made in house; host or cells: E. coli
Nature of the experiment: In vitro reverse transcription activity of HBV polymerase (ELISA-type, DIG/biotin nucleotides). The experiment is classed as biochemical. The conditions noted are these: for inhibition at 0.01 µg/mL / inhibition at 0.1 µg/mL / inhibition at 1 µg/mL: read-out: Inhibition activity on HBV-RT (%). The protocol:
<Experiment 1> Inhibitory Effect on the In Vitro Activities of HBV Polymerase in Reverse Transcription
The following in vitro experiment was performed to determine the effect of the compounds of formula 1 on the activity of HBV polymerase during reverse transcription.
The present inventors submitted application for a patent concerning HBV polymerase genetically expressed in and separated from E.coli, the process of its preparation, and the method to measure the enzyme activities (KR 94-3918, KR 96-33998). In the present experiments HBV polymerase was used which had been expressed in E. coli as stated above.
The method used in the present invention to measure in vitro reverse transcribing activities of HBV polymerase is as follows. Basic principles are the same as for ELISA. Nucleotides with biotin or digoxigenin group attached are included as substrates and anti-DIG antibodies attached to peroxidase enzyme recognize the polymerized substrates.
To the wells coated with streptavidin, 20 μl of HBV polymerase, 20 μl of reaction mixture (10 μM each of DIG-UTP and Biotin-UTP, 46 mM Tris-HCl, 266 mM KCl, 27.5 mM MgCl2, 9.2 mM DTT substrate/primer nybrid), and 20 μl of test compound (added to 1, 0.1, and 0.01 μg/ml) were added and allowed to react at 22° C. for 15 hrs. During this reaction, HBV polymerase catalyzes DNA synthesis and digoxigenin and biotin attached to nucleotides form bonds with streptavidin coated on the bottom of wells. When the reaction was done, each well was washed with 250 μl of cleaning buffer (pH 7.0) for 30 seconds, which was repeated five times to remove remaining impurities. 200 μl of anti-DIG-POD antibody was added to each well and allowed to react for 1 hr at 37° C., and the wells were washed with cleaning buffer to remove impurities. 200 μl each of ABTS™, a substrate of peroxidase, was then added and allowed to react at room temperature for 30 min. Absorbance was measured at 405 nm using ELISA reader.
The percentage of reduction in HBV polymerase activities for reverse transcription was calculated using the group without test compound as a control and the results are shown in Table 3.

The test system of a further experiment is HBV. Briefly: Proliferation of HBV in HBV producing cell line HepG 2.2.15 (competitive PCR of culture supernatant). The experiment is classed as cell-based, Hepatitis B virus. The conditions noted are these: HepG 2.2.15, one week; for inhibition at 0.01 µg/mL / inhibition at 0.1 µg/mL / inhibition at 1 µg/mL: Hepatitis B virus, HepG2.2.15, 168 h, read-out: Inhibitory effect on the HBV proliferation: Inhibition activity on HBV-RT (%). Here is the method: <Experiment 2> Inhibitory Effect on the Proliferation of HBV in HBV Producing Cell Line
The following experiment was performed to determine inhibitory effects of compounds of formula 1 on the proliferation of HBV producing cell line.
To test for antiviral effect, replication and proliferation of HBV were measured in HepG 2.2.15, a human liver cancer cell line.
The cell concentration was adjusted to 1×10^5 cells/ml and 1 ml was added to each well of a 24-well cell culture plate, which was then kept in a culture box for 3-4 days at 37° C. under 5% CO2 until cells grew sufficiently, changing culture medium everyday. When the cells matured sufficiently, the test compounds were added to the final concentrations of 0.01, 0.1, and 1 μg/ml. One week after the addition of test compounds, the culture solution was centrifuged at 5,000 rpm for 10 min. 25 μl of supernatant was transferred to a new tube and 5 μl of lysis solution [0.54N NaOH, 0.06% NP40] was added to each tube. After keeping the tube at 37° C. for 1 hr, 30 μl of neutralizing solution [0.09N HCl 0.1MTris-HCl, pH7.4] was added as a reaction solution for competitive polymerase chain reaction (PCR).
PCR was performed using genetic sequence of HBV core protein as a matrix. PCR reaction was carried out by adding 1 unit of Taq polymerase enzyme to 25 pmol of each primer, 250 μM dNTP, 5 μl of PCR reaction solution [0.54N NaOH, 0. 06% NP40, 0.09N HCl, 0.1M Tris-HCl, pH 7.4].
DNA polymerized by PCR was electrophoresed on Agarose gel and quantitatively analyzed using an image analyzer (Gel Doc 1000, Bio-Rad) in order to evaluate the effect of compounds of the present invention on the reduction of HBV proliferation.
3TC (lamivudine) was used as a positive control at the same concentrations as those of the test compounds. The percentage of reduction in HBV proliferation was calculated using the group without test compound as a control and the results are represented in Table 4.

The target of experiment [1] is T2, HIV reverse transcriptase (Human immunodeficiency virus type 1 group M subtype B, UniProt P03366).
T2 construct: purchased Boehringer Mannheim
Briefly: In vitro HIV reverse transcriptase activity (non-radioactive RT assay kit). In kind it is biochemical. Here is the method:
<Experiment 3> Inhibitory Effect on the In Vitro HIV Enzyme Activities in Reverse Transcription
The following in vitro experiments were done to determine the effect of compounds of formula 1 on the reduction of HIV enzyme activities in reverse transcription.
Non-radioactive reverse transcriptase assay kit (Boehringer Mannheim) was used in the measurement of in vitro transcriptase activities. 20 μl (40 ng) of HIV transcriptase and 20 μl of reaction mixture containing matrix-primer hybrid poly(A)oligo(dT)15, DIG(digoxigenin)-dUTP, biotin-dUTP, and TTP were added to wells coated with streptavidin. Test compounds were also added at the final concentrations of 0.1 and 1 μg/ml and allowed to react at 37° C. for 1 hr. At this time, DNA is formed from RNA by the action of HIV reverse transcriptase, forming bonds with streptavidin coated on the bottom of wells because of digoxigenin and biotin moieties attached to nucleotides.
When the reaction was completed, each well was washed with 250 μl of cleaning buffer (pH7.0) for 30sec. five times to remove remaining impurities. 200 μl of anti-DIG-POD […] was added to each well, allowed to react at 37° C. for 1 hr and washed as above to remove impurities. 200 μl of ABTS™, a substrate for peroxidase, was added to each well and allowed to react at room temperature for 30 min. Absorbance at 405 nm was then read for each solution using ELISA reader and used for quantitative determination of inhibitory effect on the HIV transcriptase activities. The percentage of reduction in the activities of HIV reverse transcriptase was calculated using the group without test compound as control and the results are represented in Table 5.

T1 sequence (P03159 whole entry): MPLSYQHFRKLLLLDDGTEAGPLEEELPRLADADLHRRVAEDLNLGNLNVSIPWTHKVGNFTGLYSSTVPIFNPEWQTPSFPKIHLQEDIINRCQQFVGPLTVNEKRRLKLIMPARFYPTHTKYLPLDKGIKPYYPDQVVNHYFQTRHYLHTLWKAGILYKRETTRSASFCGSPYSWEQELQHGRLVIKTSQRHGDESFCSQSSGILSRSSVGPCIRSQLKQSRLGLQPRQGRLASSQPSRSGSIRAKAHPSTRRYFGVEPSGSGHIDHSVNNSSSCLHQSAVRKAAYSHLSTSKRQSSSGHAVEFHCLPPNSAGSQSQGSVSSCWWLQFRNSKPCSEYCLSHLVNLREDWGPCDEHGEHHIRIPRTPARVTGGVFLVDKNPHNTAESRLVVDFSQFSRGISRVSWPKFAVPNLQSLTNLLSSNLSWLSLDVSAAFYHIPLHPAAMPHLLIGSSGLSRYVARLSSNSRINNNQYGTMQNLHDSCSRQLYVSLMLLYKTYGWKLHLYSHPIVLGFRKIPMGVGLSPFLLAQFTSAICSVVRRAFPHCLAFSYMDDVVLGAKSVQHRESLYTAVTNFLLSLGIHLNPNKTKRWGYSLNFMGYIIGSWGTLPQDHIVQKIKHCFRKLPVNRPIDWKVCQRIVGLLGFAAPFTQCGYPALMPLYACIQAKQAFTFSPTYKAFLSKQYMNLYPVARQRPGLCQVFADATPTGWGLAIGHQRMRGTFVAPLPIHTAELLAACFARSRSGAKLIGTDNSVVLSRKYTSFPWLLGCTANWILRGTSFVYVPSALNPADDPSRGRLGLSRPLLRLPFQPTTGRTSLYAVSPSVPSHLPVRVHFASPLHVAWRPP

Regarding `COCC(C)Nc1ccc([N+](=O)[O-])c(Nc2ccc3[nH]ncc3c2)n1` (stereo not shown) [Example 15, 2-(1H-5-indazolylamino)-6-(2-methoxy-1-methyl)ethylamino-3-nitropyridine], the “Inhibition activity on HBV-RT (%)” value at HBV polymerase (0.01 μg/ml test compound) worked out at 47%; at HBV polymerase (0.1 μg/ml test compound) it was 68%; on HBV polymerase (1 μg/ml test compound), 97%. The figures for the “Inhibitory effect on the HBV proliferation: Inhibition activity on HBV-RT (%)” value (“Inhibitory effect on the HBV proliferation … (%)” for short) with HBV (0.01 μg/ml), with HBV (0.1 μg/ml) and with HBV (1 μg/ml) were 36%, 60% and 95%, respectively.

As to `CC(C)CNc1ccc([N+](=O)[O-])c(Nc2ccc3[nH]ncc3c2)n1` [Example 7, 2-(1H-5-indazolylamino)-6-isobuthyl amino-3-nitropyridine], the “Inhibition activity on HBV-RT (%)” value is listed as 47% on HBV polymerase (0.01 μg/ml test compound), 80% at HBV polymerase (0.1 μg/ml test compound) and 95% on HBV polymerase (1 μg/ml test compound). Besides, the results for the “Inhibitory effect on the activities of HIV reverse transcriptase: Inhibition activity on HIV-RT (%)” value (shortened to “Inhibitory effect on the activities … (%)”) in experiment [1] (0.1 μg/ml test compound) and in experiment [1] (1 μg/ml test compound) were 45% and 72%, respectively. The “Inhibitory effect on the HBV proliferation … (%)” value came out at 30% in the experiment with HBV (0.01 μg/ml), 75% with HBV (0.1 μg/ml) and 93% with HBV (1 μg/ml).

As for `COc1ccc([N+](=O)[O-])c(Nc2ccc3[nH]ncc3c2)n1` [Example 1, 2-(1H-5-indazolylamino)-6-methoxy-3-nitropyridine], the inhibition at 0.01 µg/mL at HBV polymerase (0.01 μg/ml test compound) worked out at 30%; with HBV (0.01 μg/ml) it was 20%. The inhibition at 0.1 µg/mL at HBV polymerase (0.1 μg/ml test compound) came to 54%; in the experiment on HBV (0.1 μg/ml), 45%. The inhibition at 1 µg/mL amounted to 85% at HBV polymerase (1 μg/ml test compound) and 82% in the experiment with HBV (1 μg/ml). Besides, the “Inhibitory effect on the activities … (%)” value is recorded as 35% in experiment [1] (0.1 μg/ml test compound) and 75% in experiment [1] (1 μg/ml test compound).

Consider `Nc1ccn([C@@H]2CS[C@H](CO)O2)c(=O)n1` [Example 3TC, lamivudine, reference compound], for which the inhibition at 0.01 µg/mL in the experiment with HBV (0.01 μg/ml) stood at 48%. Further, the inhibition at 0.1 µg/mL with HBV (0.1 μg/ml) came out at 80%. Moreover, the inhibition at 1 µg/mL in the experiment with HBV (1 μg/ml) came out at 99%.

Turning to `CN1CCN(c2ccc([N+](=O)[O-])c(Nc3ccc4[nH]ncc4c3)n2)CC1` [Example 25, 2-(1H-5-indazolylamino)-6-(4-methyl-1-piperazinyl)-3-nitropyridine], the values for the inhibition at 0.01 µg/mL at HBV polymerase (0.01 μg/ml test compound) and with HBV (0.01 μg/ml) were 35% and 25%, respectively. Besides, the inhibition at 0.1 µg/mL at HBV polymerase (0.1 μg/ml test compound) was 54%; in the experiment with HBV (0.1 μg/ml), 46%. Moreover, the inhibition at 1 µg/mL on HBV polymerase (1 μg/ml test compound) turned out to be 88%; with HBV (1 μg/ml), 83%.

As for `CNc1ccc([N+](=O)[O-])c(Nc2ccc3[nH]ncc3c2)n1` [Example 3, 2-(1H-5-indazolylamino)-6-methyl amino-3-nitropyridine], the figures for the “Inhibition activity on HBV-RT (%)” value at HBV polymerase (0.01 μg/ml test compound), on HBV polymerase (0.1 μg/ml test compound) and at HBV polymerase (1 μg/ml test compound) were 20%, 47% and 58%, respectively. Also, the “Inhibitory effect on the HBV proliferation … (%)” value was 35% with HBV (0.1 μg/ml) and 53% in the experiment with HBV (1 μg/ml).

In the case of `O=[N+]([O-])c1ccc(NC2CC2)nc1Nc1ccc2[nH]ncc2c1` [Example 8, 6-cyclopropylamino-2-(1H-5-indazolylamino)-3-nitropyridine], the values for the inhibition at 0.01 µg/mL at HBV polymerase (0.01 μg/ml test compound) and in the experiment on HBV (0.01 μg/ml) were 38% and 25%, respectively. Moreover, the figures for the inhibition at 0.1 µg/mL at HBV polymerase (0.1 μg/ml test compound) and in the experiment on HBV (0.1 μg/ml) were 52% and 46%, respectively. For the same compound, the inhibition at 1 µg/mL on HBV polymerase (1 μg/ml test compound) came out at 72%; in the experiment with HBV (1 μg/ml), 65%.

As to `O=[N+]([O-])c1ccc(N2CCN(CCO)CC2)nc1Nc1ccc2cn[nH]c2c1` [Example 27, 6-[4-(2-hydroxyethyl)-1-piperazinyl]-2-(1H-6-indazolylamino)-3-nitropyridine], the inhibition at 0.01 µg/mL at HBV polymerase (0.01 μg/ml test compound) stood at 15%. For the same compound, at HBV polymerase (0.1 μg/ml test compound), the inhibition at 0.1 µg/mL was determined as 38%. Moreover, the inhibition at 1 µg/mL at HBV polymerase (1 μg/ml test compound) was 60%. In addition, the “Inhibitory effect on the activities … (%)” value in experiment [1] (0.1 μg/ml test compound) came out at 45%; in experiment [1] (1 μg/ml test compound), 81%.

With `O=[N+]([O-])c1ccc(NCc2cccnc2)nc1Nc1ccc2[nH]ncc2c1` [Example 19, 2-(1H-5-indazolylamino)-3-nitro-6-(3-pyridyl)methylaminopyridine], the inhibition at 0.01 µg/mL is 42% at HBV polymerase (0.01 μg/ml test compound) and 30% in the experiment with HBV (0.01 μg/ml). Moreover, the inhibition at 0.1 µg/mL on HBV polymerase (0.1 μg/ml test compound) was found to be 58%; in the experiment on HBV (0.1 μg/ml) it was 51%. In addition, the inhibition at 1 µg/mL was 91% on HBV polymerase (1 μg/ml test compound) and 85% with HBV (1 μg/ml).

Turning to `CN(C)CCNc1ccc([N+](=O)[O-])c(Nc2ccc3cn[nH]c3c2)n1` [Example 16, 6-[2-(dimethylamino)ethylamino]-2-(1H-6-indazolylamino)-3-nitropyridine], at HBV polymerase (0.01 μg/ml test compound), the inhibition at 0.01 µg/mL is 38%. The inhibition at 0.1 µg/mL at HBV polymerase (0.1 μg/ml test compound) was found to be 55%. In addition, the inhibition at 1 µg/mL at HBV polymerase (1 μg/ml test compound) turned out to be 80%. In addition, the “Inhibitory effect on the activities … (%)” value is given as 51% in experiment [1] (0.1 μg/ml test compound) and 75% in experiment [1] (1 μg/ml test compound).
